In PubChem BioAssay AID2060488 (Molecular Pharmacology Branch, DTP, NCI, 2025):
pIC50: −log10 of the molar value.

Tested on: 966289-007-R4-J1-PDC complex spheroid viability
Experiment: Anticancer human tumor 966289-007-R4-J1-PDC patient-derived pancreatic adenocarcinoma cell line growth inhibition [GQUAD]
Details: for pIC50: curve of first compound; for viability, T/C: stronger effect = lower value
From the text: DNA G-quadruplex Stabilizer Agents in Combinations in Complex Spheroids
A high-throughput screen of multi-cell type tumor spheroids was designed to identify active combinations of DNA G-quadruplex stabilizer agents and targeted small molecules. Complex spheroids include a stromal component modeled by human endothelial cells (HUVEC) and fibroblasts modeled by human mesenchymal stem cells (MSCs). The concentration ranges selected for each drug and investigational agent were based upon clinically achievable concentrations if the clinical Cmax of the agent was known.
Compounds. The drugs and investigational agents: pidnarulex (CX-5461; NSC782164), APTO-253 (NSC789042), BRACO-19 (NSC847499), peposertib (NSC802822), ceralasertib (NSC780249), elimusertib (NSC800525), camonsertib (NSC841442), AZD-1390 (NSC803789), olaparib (NSC753686), talazoparib (NSC767125), ART-558 (NSC835418), sotorasib (NSC818433), MRTX-1133 (NSC836407), SN-38 (NSC673596), topotecan (NSC609699), etoposide (NSC141540), doxorubicin (NSC123127), gemcitabine (NSC613327), 5-fluorouracil (NSC19893), paclitaxel (NSC125973), vemurafenib (NSC761431), panobinostat (NSC761190), R-306465 (JNJ-16241199; NSC773264), adavosertib (NSC754352), TP-3654 (NSC805149), carboplatin (NSC241240), KSQ-4279 (NSC840948), and staurosporine (NSC755774) were obtained from the National Cancer Institute (NCI) Developmental Therapeutics Program Chemical Repository (34). The FDA-approved anticancer drug set is available from the NCI Developmental Therapeutics Program. […] The stock solutions were prepared in dimethyl sulfoxide (DMSO, Sigma-Aldrich, St. Louis, MO, cat. D2650) at 800-fold the tested concentration and stored at -70 degrees C prior to their use. All drugs and investigational agents were tested over a range starting from a high concentration at or near the clinical Cmax and decreasing in half-log increments. If the clinical Cmax for an agent had not been determined, the highest concentration tested was 10 microM.
2.3 Cell Culture. All cells were maintained in an incubator at 37 degrees C and 5% CO2 with 95% humidity. The PDC lines were cultured according to standard operating procedures established by the NCI PDMR. All PDCs were thawed and cultured in Matrigel-coated flasks prepared with a working solution of 1X Ham's F-12 nutrient mix, without supplementation (Invitrogen, cat. 11765054), 100 U/mL penicillin-streptomycin (Invitrogen, cat. 15140122), and 2.5% Matrigel (Corning Inc., cat. 354248) for the first three passages. The 857933-349-R-J2-PDC line was cultured in 6C/Colon 1B media, which includes advanced DMEM/F-12 (Thermo Fisher Scientific, cat. 12634028), 10 mM HEPES (Thermo Fisher Scientific, cat. 15630080), 1X GlutaMAX supplement (Thermo Fisher Scientific, cat. 35050061), 0.1 mg/mL primocin (InvivoGen, cat. ant-pm-2), 10% defined fetal bovine serum, heat inactivated (HyClone Laboratories Inc., cat. SH30070.03HI), 50% L-WRN conditioned media (ATCC, cat. CRL-3276), 1.25 mM N-Acetyl-L-cysteine (Sigma-Aldrich, cat. A9165), 10 mM nicotinamide (Sigma-Aldrich, cat. N0636), 1X B-27 supplement (Thermo Fisher Scientific, cat. 17504044), 1X N-2 supplement (Thermo Fisher Scientific, cat. 17502048), 10 microM Y-27632 dihydrochloride (Tocris Bioscience, cat. 1254), and 50 ng/mL human EGF recombinant protein (Thermo Fisher Scientific, cat. PHG0311). The 485176-168-R4-J1-PDC line was cultured in Panc media, which includes all 6C/Colon 1B media components plus 100 ng/mL human FGF-10 (Thermo Fisher Scientific, cat. 100-26), 500 nM SB-431542 (Selleckchem, cat. S1067), and gastrin (Tocris, cat. 3006).
[…]

[1] = second compound 0.0316 µM, first compound 0.0316 µM
[2] = second compound 0.0316 µM, first compound 0.1 µM
[3] = second compound 0.0316 µM, first compound 0.316 µM
[4] = second compound 0.0316 µM, first compound 1 µM
[5] = second compound 0.0316 µM, first compound 3.16 µM
[6] = second compound 0.0316 µM, first compound 10 µM
[7] = second compound 0.1 µM, first compound 0.0316 µM
[8] = second compound 0.1 µM, first compound 0.1 µM
[9] = second compound 0.1 µM, first compound 0.316 µM
[10] = second compound 0.1 µM, first compound 1 µM
[11] = second compound 0.1 µM, first compound 3.16 µM
[12] = second compound 0.1 µM, first compound 10 µM
[13] = second compound 0.316 µM, first compound 0.0316 µM
[14] = second compound 0.316 µM, first compound 0.1 µM
[15] = second compound 0.316 µM, first compound 0.316 µM
[16] = second compound 0.316 µM, first compound 1 µM
[17] = second compound 0.316 µM, first compound 3.16 µM
[18] = second compound 0.316 µM, first compound 10 µM
[19] = second compound 1 µM, first compound 0.0316 µM
[20] = second compound 1 µM, first compound 0.1 µM
[21] = second compound 1 µM, first compound 0.316 µM
[22] = second compound 1 µM, first compound 1 µM
[23] = second compound 1 µM, first compound 3.16 µM
[24] = second compound 1 µM, first compound 10 µM
[25] = second compound 3.16 µM, first compound 0.0316 µM
[26] = second compound 3.16 µM, first compound 0.1 µM
[27] = second compound 3.16 µM, first compound 0.316 µM
[28] = second compound 3.16 µM, first compound 1 µM
[29] = second compound 3.16 µM, first compound 3.16 µM
[30] = second compound 3.16 µM, first compound 10 µM
[31] = second compound 10 µM, first compound 0.0316 µM
[32] = second compound 10 µM, first compound 0.1 µM
[33] = second compound 10 µM, first compound 0.316 µM
[34] = second compound 10 µM, first compound 1 µM
[35] = second compound 10 µM, first compound 3.16 µM
[36] = second compound 10 µM, first compound 10 µM
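Further: spheroids exposed to the agents for seven days before readout.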
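Wherever viability, T/C is given: percent viability relative to DMSO vehicle control wells taken as 100%.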

CC1COCCN1c1cc(-c2ccnn2C)c2ccnc(-c3ccn[nH]3)c2n1 (centres undefined) + CN(C)c1ccc(Nc2c3ccc(NC(=O)CCN4CCCC4)cc3nc3cc(NC(=O)CCN4CCCC4)ccc23)cc1
pIC50 (second compound 0.0316 µM): 6.67 | pIC50 (second compound 0.1 µM): 6.64 | pIC50 (second compound 0.316 µM): 6.67 | pIC50 (second compound 1 µM): 6.62 | pIC50 (second compound 3.16 µM): 6.66 | pIC50 (second compound 10 µM): 6.84 | viability, T/C [1]: 113% | viability, T/C [2]: 88.9% | viability, T/C [3]: 29.1% | viability, T/C [4]: 11.2% | viability, T/C [5]: 6.12% | viability, T/C [6]: 3.97% | viability, T/C [7]: 113% | viability, T/C [8]: 97.5% | viability, T/C [9]: 30.8% | viability, T/C [10]: 10.2% | viability, T/C [11]: 5.52% | viability, T/C [12]: 4.49% | viability, T/C [13]: 108% | viability, T/C [14]: 89.6% | viability, T/C [15]: 29.3% | viability, T/C [16]: 11% | viability, T/C [17]: 5.87% | viability, T/C [18]: 4.36% | viability, T/C [19]: 107% | viability, T/C [20]: 96.2% | viability, T/C [21]: 35.1% | viability, T/C [22]: 10.6% | viability, T/C [23]: 4.68% | viability, T/C [24]: 4.37% | viability, T/C [25]: 110% | viability, T/C [26]: 94.3% | viability, T/C [27]: 28.2% | viability, T/C [28]: 10.7% | viability, T/C [29]: 6.99% | viability, T/C [30]: 5.79% | viability, T/C [31]: 103% | viability, T/C [32]: 64.3% | viability, T/C [33]: 18.2% | viability, T/C [34]: 9.04% | viability, T/C [35]: 5.74% | viability, T/C [36]: 4.94%

CC1COCCN1c1cc(C2(O)CC3CCC(C2)O3)c2cnn(-c3ccn[nH]3)c2n1 (centres undefined) + CN(C)c1ccc(Nc2c3ccc(NC(=O)CCN4CCCC4)cc3nc3cc(NC(=O)CCN4CCCC4)ccc23)cc1
pIC50 (second compound 0.0316 µM): 6.75 | pIC50 (second compound 0.1 µM): 6.75 | pIC50 (second compound 0.316 µM): 6.75 | pIC50 (second compound 1 µM): 6.78 | pIC50 (second compound 3.16 µM): 6.83 | pIC50 (second compound 10 µM): 7.13 | viability, T/C [1]: 116% | viability, T/C [2]: 75.1% | viability, T/C [3]: 24.1% | viability, T/C [4]: 8.6% | viability, T/C [5]: 5.79% | viability, T/C [6]: 5.95% | viability, T/C [7]: 112% | viability, T/C [8]: 81.4% | viability, T/C [9]: 18.1% | viability, T/C [10]: 8.59% | viability, T/C [11]: 5.93% | viability, T/C [12]: 5.58% | viability, T/C [13]: 109% | viability, T/C [14]: 75.8% | viability, T/C [15]: 23.1% | viability, T/C [16]: 9% | viability, T/C [17]: 5.73% | viability, T/C [18]: 5.87% | viability, T/C [19]: 103% | viability, T/C [20]: 74.3% | viability, T/C [21]: 19.6% | viability, T/C [22]: 8.84% | viability, T/C [23]: 6.93% | viability, T/C [24]: 4.89% | viability, T/C [25]: 104% | viability, T/C [26]: 65.6% | viability, T/C [27]: 19.1% | viability, T/C [28]: 8.61% | viability, T/C [29]: 6.25% | viability, T/C [30]: 4.79% | viability, T/C [31]: 86.3% | viability, T/C [32]: 37.3% | viability, T/C [33]: 12.7% | viability, T/C [34]: 6.7% | viability, T/C [35]: 6.68% | viability, T/C [36]: 3.1%
